# Positions of bridges follow the written chain, without caps; N, C: chain ends. Non-standard residues stand in square brackets, D forms with d. Residues, ends and D or L forms follow the SMILES beside them. Aoc = NCCCCCCCC(=O)O
# What was measured:
# [1] = molecular target: T1, human Y5 receptor (Homo sapiens, UniProt Q15761); test: Human Y5 receptor potency assay (inositol phosphate turnover); assay type: cell-based
# T1 construct: expressed in transfected cells; host or cells: COS-7
# Experimental: (§1) Potency of the test compounds on the human Y2 receptor is determined by performing dose-response experiments in COS-7 cells transiently transfected with the human Y2 receptor as well as a promiscuous G protein, Gqi5 which ensures that the Y2 receptor couples through a Gq pathway leading to an increase in inositol phosphate turnover.
# (§2) Cells are washed twice in buffer, 20 mM HEPES, pH 7.4, supplemented with 140 mM NaCl, 5 mM KCl, 1 mM MgSO4, 1 mM CaCl2, 10 mM glucose, 0.05% (w/v) bovine serum; and are incubated in 0.5 ml buffer supplemented with 10 mM LiCl at 37 C for 30 min. After stimulation with various concentrations of peptide for 45 min at 37 C, cells are extracted with 10% ice-cold perchloric acid followed by incubation on ice for 30 min. The resulting supernatants are neutralized with KOH in HEPES buffer, and the generated [3H]-inositol phosphate are purified on Bio-Rad AG 1-X8 anion-exchange resin and counted in a beta counter. Determinations are made in duplicates. EC50 values were calculated using a standard pharmacological data handling software, Prism 3.0 (graphPad Sofware, San Diego, USA).
# Protocol as for the Y2 potency assay, except that human Y5-transformed COS-7 cells are used
# [2] = molecular target: T2, human Y1 receptor (Homo sapiens, UniProt P25929); test: Human Y1 receptor affinity assay (competition binding)
# T2 construct: expressed in transfected cells; host or cells: COS-7
# T2 sequence (P25929 1-384): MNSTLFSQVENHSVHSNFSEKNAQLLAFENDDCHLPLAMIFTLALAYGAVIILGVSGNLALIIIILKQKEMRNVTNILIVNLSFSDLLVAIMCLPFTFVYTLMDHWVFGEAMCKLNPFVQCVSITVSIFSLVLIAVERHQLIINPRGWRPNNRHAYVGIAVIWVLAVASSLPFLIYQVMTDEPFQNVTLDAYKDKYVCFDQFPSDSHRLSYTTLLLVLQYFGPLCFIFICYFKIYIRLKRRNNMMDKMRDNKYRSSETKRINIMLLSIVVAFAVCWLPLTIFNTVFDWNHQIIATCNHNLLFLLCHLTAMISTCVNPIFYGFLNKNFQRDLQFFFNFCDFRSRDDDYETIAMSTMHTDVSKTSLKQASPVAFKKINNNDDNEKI
# Experimental: (§3) Transfected COS-7 cells are transferred to culture plates one day after transfection at a density of 40×10^3 cells per well aiming at 5-8% binding of the radioactive ligand. […] Determinations are made in duplicate. […] EC50 values were calculated using a standard pharmacological data handling software, Prism 3.0 (graphPad Sofware, San Diego, USA).
# [3] = molecular target: T3, human Y4 receptor (Homo sapiens, UniProt P50391); test: Human Y4 receptor potency assay (inositol phosphate turnover); assay type: cell-based
# T3 construct: expressed in transfected cells; host or cells: COS-7
# T3 sequence (P50391 whole entry): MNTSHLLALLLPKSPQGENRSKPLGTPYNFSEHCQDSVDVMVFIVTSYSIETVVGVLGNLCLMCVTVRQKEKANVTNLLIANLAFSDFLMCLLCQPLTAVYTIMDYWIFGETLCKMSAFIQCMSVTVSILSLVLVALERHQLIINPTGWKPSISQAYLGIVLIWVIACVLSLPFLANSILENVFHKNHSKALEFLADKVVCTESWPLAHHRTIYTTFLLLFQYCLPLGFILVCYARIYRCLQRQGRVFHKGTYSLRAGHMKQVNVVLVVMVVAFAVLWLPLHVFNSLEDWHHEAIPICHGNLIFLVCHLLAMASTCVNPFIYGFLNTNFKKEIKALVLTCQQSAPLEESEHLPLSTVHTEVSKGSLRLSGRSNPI
# Experimental: as §1, §2
# Protocol as for the Y2 potency assay, except that human Y4-transformed COS-7 cells are used.
# [4] = molecular target: T4, human Y2 receptor (Homo sapiens, UniProt P49146); test: Human Y2 receptor affinity assay (competition binding)
# T4 construct: expressed in transfected cells; host or cells: COS-7
# T4 sequence (P49146 1-381): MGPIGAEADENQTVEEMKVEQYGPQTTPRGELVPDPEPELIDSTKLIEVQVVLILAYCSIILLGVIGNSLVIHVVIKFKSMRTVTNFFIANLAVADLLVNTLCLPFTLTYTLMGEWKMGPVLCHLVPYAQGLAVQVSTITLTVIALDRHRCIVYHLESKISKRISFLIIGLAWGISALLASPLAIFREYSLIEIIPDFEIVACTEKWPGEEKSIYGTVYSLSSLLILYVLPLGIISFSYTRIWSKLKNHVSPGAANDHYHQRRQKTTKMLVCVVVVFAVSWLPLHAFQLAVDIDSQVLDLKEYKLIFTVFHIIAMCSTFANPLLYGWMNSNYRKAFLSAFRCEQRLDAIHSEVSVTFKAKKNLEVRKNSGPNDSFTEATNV
# Experimental: as §3
# [5] = molecular target: T2, human Y1 receptor; test: Human Y1 receptor potency assay (inositol phosphate turnover); assay type: cell-based
# Experimental: as §1, §2
# Protocol as for the Y2 potency assay, except that human Y1-transformed COS-7 cells are used.
# [6] = molecular target: T1, human Y5 receptor; test: Human Y5 receptor affinity assay (competition binding)
# Experimental: as §3
# [7] = molecular target: T3, human Y4 receptor; test: Human Y4 receptor affinity assay (competition binding)
# Experimental: as §3
# [8] = molecular target: T4, human Y2 receptor; test: Human Y2 receptor potency assay (inositol phosphate turnover); assay type: cell-based; details: Y2 EC50, COS-7 cells with human Y2 and Gqi5, inositol phosphate turnover; Table 2
# Experimental: as §1, §2
# [9] = tested on: rats; details: rat; cited from earlier work
# T1 sequence (Q15761 whole entry): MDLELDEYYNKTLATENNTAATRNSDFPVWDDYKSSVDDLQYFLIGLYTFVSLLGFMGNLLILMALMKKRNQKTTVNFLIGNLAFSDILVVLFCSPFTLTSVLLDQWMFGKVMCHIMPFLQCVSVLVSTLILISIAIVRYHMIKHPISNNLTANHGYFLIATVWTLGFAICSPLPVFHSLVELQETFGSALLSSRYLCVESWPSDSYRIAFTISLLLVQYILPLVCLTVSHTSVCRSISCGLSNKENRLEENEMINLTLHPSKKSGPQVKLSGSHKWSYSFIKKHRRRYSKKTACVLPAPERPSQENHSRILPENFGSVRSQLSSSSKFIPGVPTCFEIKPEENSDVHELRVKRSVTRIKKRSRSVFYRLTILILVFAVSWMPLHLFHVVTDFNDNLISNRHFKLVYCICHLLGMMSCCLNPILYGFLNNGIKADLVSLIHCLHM
compound,measurement,setting,value
"CC(C)C[C@H](NC(=O)[C@H](Cc1ccc(O)cc1)NC(=O)[C@H](Cc1c[nH]cn1)NC(=O)[C@H](CCCNC(=N)N)NC(=O)[C@H](CCCCN)NC(=O)[C@H](CCCCN)NC(=O)[C@H](CCCCN)NC(=O)[C@H](CCCCN)NC(=O)[C@H](CCCCN)NC(=O)[C@@H](N)CCCCN)C(=O)N[C@@H](CC(N)=O)C(=O)N[C@@H](CC(C)C)C(=O)N[C@H](C(=O)N[C@H](C(=O)N[C@@H](CCCNC(=N)N)C(=O)N[C@@H](CCC(N)=O)C(=O)N[C@@H](CCCNC(=N)N)C(=O)N[C@@H](Cc1ccc(O)cc1)C(N)=O)[C@@H](C)O)C(C)C [SEQ ID NO: 11, Lys-Lys-Lys-Lys-Lys-Lys-PYY25-36]",EC50,[1],> 1000 nM
"CC[C@H](C)[C@H](NC(=O)[C@H](Cc1ccc(O)cc1)NC(=O)[C@H](CCCNC(=N)N)NC(=O)[C@H](CCCNC(=N)N)NC(=O)[C@H](CC(C)C)NC(=O)[C@H](CC(=O)O)NC(=O)[C@H](C)NC(=O)[C@H](C)NC(=O)[C@H](Cc1ccc(O)cc1)NC(=O)[C@H](CCC(N)=O)NC(=O)[C@H](C)NC(=O)[C@H](CCSC)NC(=O)[C@H](CCC(N)=O)NC(=O)[C@H](CCC(=O)O)NC(=O)[C@@H]1CCCN1C(=O)[C@@H](NC(=O)[C@H](C)NC(=O)[C@H](CC(N)=O)NC(=O)[C@H](CC(=O)O)NC(=O)CNC(=O)[C@@H]1CCCN1C(=O)[C@H](Cc1ccc(O)cc1)NC(=O)[C@@H](NC(=O)[C@@H]1CCCN1C(=O)[C@H](CCCCN)NC(=O)[C@H](CC(C)C)NC(=O)[C@@H]1CCCN1C(=O)[C@H](C)N)C(C)C)[C@@H](C)O)C(=O)N[C@@H](CC(N)=O)C(=O)N[C@@H](CCSC)C(=O)N[C@@H](CC(C)C)C(=O)N[C@H](C(=O)N[C@@H](CCCNC(=N)N)C(=O)N[C@@H](CCC(N)=O)C(=O)N[C@@H](CCCNC(=N)N)C(=O)N[C@@H](Cc1ccc(O)cc1)C(N)=O)[C@@H](C)O [SEQ ID NO: 12, [Lys4,Gln34]PP]",IC50,[2],> 1000 nM
"CC[C@H](C)[C@@H]1NC(=O)[C@@H](NC(=O)[C@@H](N)Cc2ccc(O)cc2)CSSC[C@H](C(=O)N[C@@H](CC(C)C)C(=O)N[C@@H](CC(N)=O)C(=O)N[C@@H](CC(C)C)C(=O)N[C@H](C(=O)N[C@H](C(=O)N[C@@H](CCCNC(=N)N)C(=O)N[C@@H](CCC(N)=O)C(=O)N[C@@H](CCCNC(=N)N)C(=O)N[C@@H](Cc2ccc(O)cc2)C(N)=O)[C@@H](C)O)C(C)C)NC(=O)[C@H](Cc2c[nH]cn2)NC(=O)[C@H](CCCNC(=N)N)NC(=O)CCCCCCCNC(=O)[C@H](CCCCN)NC1=O [SEQ ID NO: 16, [Cys2,Aoc5-24,D-Cys27]PYY] (H-YCIK[Aoc]RH[dC]LNLVTRQRY-NH2; disulfide 2-8; N-terminus assumed)",EC50,[1],> 1000 nM
same,stimulation of the Y5 receptor,[1]; at a concentration of 1 μM,stimulates neither
same,EC50,[3],> 1000 nM
same,stimulation of the Y4 receptor,[3]; at a concentration of 1 μM,stimulates neither
same,IC50,[4],0.87 nM
same,EC50,[5],> 1000 nM
same,stimulation of the Y1 receptor,[5]; at 1 μM,does not even at 1 μM stimulate
same,IC50,[6],> 1000 nM
same,IC50,[2],> 1000 nM
same,IC50,[7],267 nM
same,EC50,[8],3.7 nM
"[Ahx5-24, gamma-Glu2-eps-Lys30]NPY",blood pressure increase in vivo,[9],not to induce blood pressure increases

# Reference: patent US20090186811A1, “Y2 Selective Receptor Agonists for Therapeutic Interventions” (priority 2004, published 2009)
